Read-outs that look alike come from different tables or passages of the source.
Target: T1, hNOD2 (Homo sapiens, UniProt Q9HC29)
T1 construct: host or cells: HEK-Blue NOD2 cells (HEK293)
Assay: HEK-Blue NOD2 cell line reporter assay (NF-κB-inducible SEAP)
Format: cell-based
Procedure: To assess the NOD2 agonistic potential of the synthesized desmuramylpeptides at a cellular level, we employed the HEK-Blue NOD2 cell line reporter assay, a validated and commercially available method. All synthesized compounds were evaluated for their dose-dependent activities to establish their EC50 values.
The HEK-Blue NOD1 and NOD2 cell line reporter assay was generated from HEK293 cells through cotransfection of the hNOD1 or hNOD2 gene, respectively, along with an NF-κB-inducible secreted embryonic alkaline phosphatase (SEAP) reporter gene. Upon activation of NOD1 or NOD2, NF-κB triggers the production of SEAP, which can be quantitatively measured colorimetrically. […] After 18 h of incubation at 37 °C with 5% CO2, SEAP activity was measured spectrophotometrically by absorbance at 630 nm (BioTek Synergy microplate reader; Winooski, VT, USA). EC50 values were determined using Prism software (version 9; GraphPad Software, CA, USA). Each experiment was conducted in duplicate and repeated in at least two independent biological replicates.

[1] = HEK-Blue NOD2 cells, 18 h, NF-κB transcriptional activity (SEAP), read-out: EC50 (nM), NOD2 agonistic activity

T1 sequence (Q9HC29 whole entry): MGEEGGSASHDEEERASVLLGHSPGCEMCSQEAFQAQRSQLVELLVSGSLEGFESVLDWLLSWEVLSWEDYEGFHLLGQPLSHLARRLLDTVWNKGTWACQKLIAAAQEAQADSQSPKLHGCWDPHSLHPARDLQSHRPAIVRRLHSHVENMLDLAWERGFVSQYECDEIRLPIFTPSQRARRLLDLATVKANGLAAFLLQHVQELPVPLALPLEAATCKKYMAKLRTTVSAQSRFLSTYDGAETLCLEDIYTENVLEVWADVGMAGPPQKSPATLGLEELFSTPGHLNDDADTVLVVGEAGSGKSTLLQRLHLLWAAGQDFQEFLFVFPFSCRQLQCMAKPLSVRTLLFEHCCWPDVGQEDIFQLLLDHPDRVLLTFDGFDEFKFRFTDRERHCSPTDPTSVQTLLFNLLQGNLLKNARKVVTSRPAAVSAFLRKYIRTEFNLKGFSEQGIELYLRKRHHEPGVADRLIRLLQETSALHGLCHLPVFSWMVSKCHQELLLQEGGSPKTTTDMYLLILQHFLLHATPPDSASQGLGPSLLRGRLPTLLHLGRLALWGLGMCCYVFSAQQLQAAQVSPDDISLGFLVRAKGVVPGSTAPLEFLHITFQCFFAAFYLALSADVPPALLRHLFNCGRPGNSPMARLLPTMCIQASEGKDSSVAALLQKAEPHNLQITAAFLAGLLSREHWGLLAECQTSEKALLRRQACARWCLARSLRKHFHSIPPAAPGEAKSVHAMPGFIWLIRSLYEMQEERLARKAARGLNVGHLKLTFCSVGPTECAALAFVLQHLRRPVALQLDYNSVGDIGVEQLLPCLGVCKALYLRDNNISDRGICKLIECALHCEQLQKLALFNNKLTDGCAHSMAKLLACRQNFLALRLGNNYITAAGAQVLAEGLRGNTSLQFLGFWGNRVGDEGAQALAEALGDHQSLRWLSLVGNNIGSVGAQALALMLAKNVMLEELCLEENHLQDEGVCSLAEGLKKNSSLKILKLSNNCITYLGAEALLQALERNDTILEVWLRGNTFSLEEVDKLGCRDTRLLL

| SMILES | EC50 [1] [nM] | also measured |
| --- | --- | --- |
| CCCCCCCCCCCCCC(=O)Oc1ccc(/C=C/C(=O)NCC(=O)N[C@H](C(=O)N[C@H](CCC(=O)OCC)C(=O)OCC)C(C)C)cc1OC [Compound 8, Diethyl ((E)-3-(3-Methoxy-4-(tetradecanoyloxy)phenyl)acryloyl)glycyl-L-valyl-D-glutamate] | 69.5 ± 5.1 | – |
| CCCCCCCCCCCCCCCCCC(=O)Oc1ccc(/C=C/C(=O)NCC(=O)N[C@H](C(=O)N[C@H](CCC(=O)OCC)C(=O)OCC)C(C)C)cc1OC [Compound 10] | 7200 ± 2640 | EC50 (HEK-Blue NOD2 cells, 18 h, read-out: EC50, NOD2 agonistic activity (text)): 7200 nM |
| CCOC(=O)[C@@H](CCC(=O)NCCCNCCCCN)NC(=O)[C@@H](NC(=O)CNC(=O)/C=C/c1ccc(O)c(OC)c1)C(C)C [Compound 34, Ethyl N^5-(3-((4-Aminobutyl)amino)propyl)-N^2-((E)-3-(4-hydroxy-3-methoxyphenyl)acryloyl)glycyl-L-valyl-D-glutaminate] | > 10000 | – |
| CCCCCCCCCC(=O)Oc1ccc(/C=C/C(=O)NCC(=O)N[C@H](C(=O)N[C@H](CCC(=O)OCC)C(=O)OCC)C(C)C)cc1OC [Compound 7, Diethyl ((E)-3-(4-(Decanoyloxy)-3-methoxyphenyl)acryloyl)glycyl-L-valyl-D-glutamate] | 30.6 ± 5.5 | – |
| CC/C=C\C/C=C\C/C=C\C/C=C\C/C=C\C/C=C\CCC(=O)Oc1ccc(/C=C/C(=O)NCC(=O)N[C@H](C(=O)N[C@H](CCC(=O)OCC)C(=O)OCC)C(C)C)cc1OC [Compound 22, Diethyl ((E)-3-(4-(((4Z,7Z,10Z,13Z,16Z,19Z)-Docosa-4,7,10,13,16,19-hexaenoyl)oxy)-3-methoxyphenyl)acryloyl)glycyl-L-valyl-D-glutamate] | 200 ± 50.8 | – |
| CCOC(=O)[C@@H](CCC(=O)NCCCCN)NC(=O)[C@@H](NC(=O)CNC(=O)/C=C/c1ccc(O)c(OC)c1)C(C)C [Compound 30, Ethyl N^5-(4-Aminobutyl)-N^2-((E)-3-(4-hydroxy-3-methoxyphenyl)acryloyl)glycyl-L-valyl-D-glutaminate] | > 10000 | – |
| CC/C=C\C/C=C\C/C=C\CCCCCCCC(=O)Oc1ccc(/C=C/C(=O)NCC(=O)N[C@H](C(=O)N[C@H](CCC(=O)OCC)C(=O)OCC)C(C)C)cc1OC [Compound 20, Diethyl ((E)-3-(3-Methoxy-4-(((9Z,12Z,15Z)-octadeca-9,12,15-trienoyl)oxy)phenyl)acryloyl)glycyl-L-valyl-D-glutamate] | 135 ± 28.9 | – |
| CCCCC/C=C\C/C=C\CCCCCCCC(=O)Oc1ccc(/C=C/C(=O)NCC(=O)N[C@H](C(=O)N[C@H](CCC(=O)OCC)C(=O)OCC)C(C)C)cc1OC [Compound 19, Diethyl ((E)-3-(3-Methoxy-4-(((9Z,12Z)-octadeca-9,12-dienoyl)oxy)phenyl)acryloyl)glycyl-L-valyl-D-glutamate] | 198 ± 39.1 | – |
| CCOC(=O)CC[C@@H](NC(=O)[C@@H](NC(=O)CNC(=O)/C=C/c1ccc(OC(=O)CCCC2CCCCC2)c(OC)c1)C(C)C)C(=O)OCC [Compound 16, Diethyl ((E)-3-(4-((4-Cyclohexylbutanoyl)oxy)-3-methoxyphenyl)acryloyl)glycyl-L-valyl-D-glutamate] | 25.8 ± 3.3 | – |
| CCCCCC(CCCCC)C(=O)Oc1ccc(/C=C/C(=O)NCC(=O)N[C@H](C(=O)N[C@H](CCC(=O)OCC)C(=O)OCC)C(C)C)cc1OC [Compound 17, Diethyl ((E)-3-(3-Methoxy-4-((2-pentylheptanoyl)oxy)phenyl)acryloyl)glycyl-L-valyl-D-glutamate] | 88.6 ± 10.5 | drop of activity compared to 2 (EC50 ratio versus 2 (lauroyl)): 9 factor |
| CCCCCCCC/C=C\CCCCCCCC(=O)Oc1ccc(/C=C/C(=O)NCC(=O)N[C@H](C(=O)N[C@H](CCC(=O)OCC)C(=O)OCC)C(C)C)cc1OC [Compound 18, Diethyl ((E)-3-(3-Methoxy-4-(oleoyloxy)phenyl)acryloyl)glycyl-L-valyl-D-glutamate] | 422 ± 120 | increase in potency compared to saturated counterpart 10 (EC50 ratio versus 10 (stearoyl)): 17 fold |
| CCCCC/C=C\C/C=C\C/C=C\CCCCC(=O)Oc1ccc(/C=C/C(=O)NCC(=O)N[C@H](C(=O)N[C@H](CCC(=O)OCC)C(=O)OCC)C(C)C)cc1OC [Compound 21, Diethyl ((E)-3-(3-Methoxy-4-(((6Z,9Z,12Z)-octadeca-6,9,12-trienoyl)oxy)phenyl)acryloyl)glycyl-L-valyl-D-glutamate] | 205 ± 28.6 | – |

The remaining compounds from weak to strong by EC50 [1], led by results:

| EC50 [1] [nM] | SMILES | also measured |
| --- | --- | --- |
| 25.5 ± 2.2 | CCCCCCCC(=O)Oc1ccc(/C=C/C(=O)NCC(=O)N[C@H](C(=O)N[C@H](CCC(=O)OCC)C(=O)OCC)C(C)C)cc1OC [Compound 5, Diethyl ((E)-3-(3-Methoxy-4-(octanoyloxy)phenyl)acryloyl)glycyl-L-valyl-D-glutamate] | – |
| 24.8 ± 2.3 | CCCCCCCCC(=O)Oc1ccc(/C=C/C(=O)NCC(=O)N[C@H](C(=O)N[C@H](CCC(=O)OCC)C(=O)OCC)C(C)C)cc1OC [Compound 6] | – |
| 22.4 ± 5.9 | CCCCC(CCCC)C(=O)Oc1ccc(/C=C/C(=O)NCC(=O)N[C@H](C(=O)N[C@H](CCC(=O)OCC)C(=O)OCC)C(C)C)cc1OC [Compound 15, Diethyl ((E)-3-(4-((2-Butylhexanoyl)oxy)-3-methoxyphenyl)acryloyl)glycyl-L-valyl-D-glutamate] | – |
| 21.6 ± 6.5 | CCCCC(CC)C(=O)Oc1ccc(/C=C/C(=O)NCC(=O)N[C@H](C(=O)N[C@H](CCC(=O)OCC)C(=O)OCC)C(C)C)cc1OC (stereo partly drawn) [Compound 12, Diethyl ((E)-3-(4-((2-ethylhexanoyl)oxy)-3-methoxyphenyl)acryloyl)glycyl-L-valyl-D-glutamate] | – |
| 20.2 ± 1.2 | CCCCCC(=O)Oc1ccc(/C=C/C(=O)NCC(=O)N[C@H](C(=O)N[C@H](CCC(=O)OCC)C(=O)OCC)C(C)C)cc1OC [Compound 4, Diethyl ((E)-3-(4-(Hexanoyloxy)-3-methoxyphenyl)acryloyl)glycyl-L-valyl-D-glutamate] | – |
| 19.4 ± 3.6 | CCCCCC(CCC)C(=O)Oc1ccc(/C=C/C(=O)NCC(=O)N[C@H](C(=O)N[C@H](CCC(=O)OCC)C(=O)OCC)C(C)C)cc1OC (stereo partly drawn) [Compound 14, Diethyl ((E)-3-(3-Methoxy-4-((2-propylheptanoyl)oxy)phenyl)acryloyl)glycyl-L-valyl-D-glutamate] | – |
| 12.3 ± 1.5 | CCOC(=O)CC[C@@H](NC(=O)[C@@H](NC(=O)CNC(=O)/C=C/c1ccc(OC(=O)CCCCCCCCCCCCCO)c(OC)c1)C(C)C)C(=O)OCC [Compound 24, Diethyl ((E)-3-(4-((14-Hydroxytetradecanoyl)oxy)-3-methoxyphenyl)acryloyl)glycyl-L-valyl-D-glutamate] | boost of NOD2 agonistic activity compared to 8 (EC50 ratio versus unsubstituted myristoylated 8): 6 fold |
| 11.7 ± 2.8 | CCCCCC(C)C(=O)Oc1ccc(/C=C/C(=O)NCC(=O)N[C@H](C(=O)N[C@H](CCC(=O)OCC)C(=O)OCC)C(C)C)cc1OC (stereo partly drawn) [Compound 11, Diethyl ((E)-3-(3-Methoxy-4-((2-methylheptanoyl)oxy)phenyl)acryloyl)glycyl-L-valyl-D-glutamate] | – |
| 9.7 | CCCCCCC(CC)C(=O)Oc1ccc(/C=C/C(=O)NCC(=O)N[C@H](C(=O)N[C@H](CCC(=O)OCC)C(=O)OCC)C(C)C)cc1OC (stereo partly drawn) [Compound 13, Diethyl ((E)-3-(4-((2-Ethyloctanoyl)oxy)-3-methoxyphenyl)acryloyl)glycyl-L-valyl-D-glutamate] | EC50 (supplementary SMILES csv, read-out: HEK-blue hNOD2 EC50): 9.7 nM |

Reference: article PMC11472310, “Distinctive Immune Signatures Driven by Structural Alterations in Desmuramylpeptide NOD2 Agonists” (Journal of Medicinal Chemistry, 2024)
